Measured values reported in patent US20100111859A1, “Visualization of Biological Material by the Use of Coated Contrast Agents” (priority 2007, published 2010).

Test: MRI measurements of relaxation rates and relaxivities
Format: physicochemical
Settings: for r1: relaxivity, MRI measurement
From the text: MRI measurements: See Engström et al., Magn Reson Mater Phy, 19 (2006) 180-186.
Commercially available and clinically used Gd^3+-DPTA has under the same conditions lower values for 1/T1 and 1/T2 (e.g. 1/T1=0.005 ms^−1). Variations in relaxivities (r1 and r2) and in the relaxivity ratio (r2/r1) are illustrated by: […]

Compound	1/T1 (1 mM) (relaxation rate at 1 mM Gd) [ms^−1]	1/T2 (relaxation rate, result in words)	r1 [mM⁻¹ s⁻¹]
O=C([O-])CN(CCN(CC(=O)[O-])CC(=O)O)CCN(CC(=O)[O-])CC(=O)O.[Gd+3] [Gd^3+-DTPA]	0.005	lower	4.1
[Cl][Gd]([Cl])[Cl] [Gd^3+ (GDCl3)]	–	–	10.5
